pEC50, pIC50: −log10 of the molar value. Values after ≈ are worked out from the molar mass of the structure shown.
Experiments:
[1] = target: DNA gyrase (Escherichia coli, UniProt P0AES4+P0AES6); experiment: Inhibition of recombinant full-length C-terminal His6-tagged Escherichia coli DNA gyrase AB supercoiling activity using relaxed DNA as substrate preincubated for 30 mins followed by substrate addition and measured after 2 hrs in presence of ATP by size exclusion HPLC analysis; format: protein-complex assay
[2] = Tmax in mouse at 5 mg/kg, po measured up to 24 hrs by LC-MS/MS analysis; format: ADME, organism-based; settings: in vivo
[3] = tested on: NIH3T3; experiment: Phototoxicity against BALB/c mouse 3T3 cells assessed as reduction in cell viability preincubated for 1 hr followed by 5 J/cm2 UVA sunlight irradiation for 50 mins and subsequent replacement of medium and measured after 24 hrs by neutral red uptake assay; format: cell-based; settings: NIH3T3, light or radiation study
[4] = Volume of distribution at steady state in rat at 5 mg/kg, iv or 10 mg/kg, po measured up to 24 hrs by LC-MS/MS analysis; format: ADME, organism-based; settings: in vivo, read-out: Vdss
[5] = Dark toxicity in BALB/c mouse 3T3 cells assessed as reduction in cell viability incubated for 1 hr prior to 50 mins incubation under dark condition followed by replacement of medium and measured after 24 hrs by neutral red uptake assay; format: cell-based, NIH3T3; settings: BALB/c 3T3 cells
[6] = Intrinsic clearance in human liver microsomes at 1 uM in presence of NADPH and measured up to 30 mins by LC-MS/MS analysis; format: ADME, Microsome; settings: read-out: CLH
[7] = Tmax in rat at 10 mg/kg, po measured up to 24 hrs by LC-MS/MS analysis; format: ADME, organism-based; settings: in vivo
[8] = Intrinsic clearance in rat liver microsomes at 1 uM in presence of NADPH and measured up to 30 mins by LC-MS/MS analysis; format: ADME, Microsome; settings: read-out: CLH
[9] = tested on: K562; experiment: Cytotoxicity against human K562 cells assessed as reduction in cell viability after 72 hrs by Cell-titer Glo assay; format: cell-based; settings: K562, 72 h
[10] = Oral bioavailability in mouse at 5 mg/kg measured up to 24 hrs by LC-MS/MS analysis; format: ADME, organism-based; settings: in vivo
[11] = tested on: Enterobacter; experiment: Antibacterial activity against Enterobacter clinical isolates by CLSI-based broth microdilution assay; format: functional
[12] = tested on: Pseudomonas aeruginosa; experiment: Antibacterial activity against wild type Pseudomonas aeruginosa PAO1 K767 by CLSI-based broth microdilution assay; format: functional

**Q.** With `Cc1c(N2CC3CC3(N)C2)c(F)cc2c(CN)c(F)c(=O)n(C3CC3)c12` (centres undefined) as the compound, how does the pIC50 [1] read?
**A.** 5.90

**Q.** And the Tmax [2]?
**A.** 30 min

**Q.** What about the pIC50 [3] of the same compound?
**A.** 5.79

**Q.** What about the Vd [4] of the same compound?
**A.** 24.1 L/kg

**Q.** What about the IC50 at 110 min [5] of the same compound?
**A.** 1000 µM

**Q.** And the microsomal CLint at 1 µM [6]?
**A.** 18 µL/min/mg

**Q.** What about the Tmax [7] of the same compound?
**A.** 78 min

**Q.** What about the microsomal CLint at 1 µM [8] of the same compound?
**A.** 117 µL/min/mg

**Q.** What about the pEC50 [9] of the same compound?
**A.** 4.40

**Q.** And the bioavailability [10]?
**A.** 36%

**Q.** What about the MIC [11] of the same compound?
**A.** 0.06 to 32 mg/L (≈ 0.166 to 88.8 µM)

**Q.** And the MIC50 [11]?
**A.** 1 mg/L (≈ 2.77 µM)

**Q.** What about the MIC90 [11] of the same compound?
**A.** 8 mg/L (≈ 22.2 µM)

**Q.** What about the MIC [12] of the same compound?
**A.** 1 mg/L (≈ 2.77 µM)
